# Reference: patent publication US10399987B2, “TGF beta receptor antagonists” (BRISTOL-MYERS SQUIBB COMPANY, priority 2015, dated 2019)
# Molecular target: HIS-TGFβR1 T204D (Homo sapiens (Human), UniProt P36897, T204D)
# Assay: TGFβR1 HIS T204D HTRF assay (labeled small molecule probe, anti-HIS detection antibody)
# Assay type: binding
# Conditions: 1 nM HIS-TGFβR1 T204D, probe at Kd, 1 hour at room temperature, eleven concentrations
# Chain of HIS-TGFβR1 T204D (P36897 34-503 T204D): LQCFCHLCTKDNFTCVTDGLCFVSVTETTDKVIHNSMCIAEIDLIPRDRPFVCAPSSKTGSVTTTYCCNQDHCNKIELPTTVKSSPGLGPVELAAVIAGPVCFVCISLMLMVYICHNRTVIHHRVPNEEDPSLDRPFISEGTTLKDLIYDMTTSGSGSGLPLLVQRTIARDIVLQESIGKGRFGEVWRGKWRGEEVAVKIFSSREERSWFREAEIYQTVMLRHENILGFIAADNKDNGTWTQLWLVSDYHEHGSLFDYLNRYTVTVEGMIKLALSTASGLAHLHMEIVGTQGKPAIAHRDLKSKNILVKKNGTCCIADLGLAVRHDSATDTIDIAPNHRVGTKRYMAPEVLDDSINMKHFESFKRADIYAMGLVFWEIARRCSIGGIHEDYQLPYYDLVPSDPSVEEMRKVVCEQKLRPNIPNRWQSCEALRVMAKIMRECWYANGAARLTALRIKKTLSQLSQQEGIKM
row,Compound,IC50 [nM]
1,"Fc1cnccc1Nc1nc(-c2cccc(C(F)F)n2)nc2[nH]ccc12 [Example 2, 2-(6-(difluoromethyl)pyridin-2-yl)-N-(3-fluoropyridin-4-yl)-7H-pyrrolo[2,3-d]pyrimidin-4-amine]",0.25
2,"O=C(CN1CCCC1)Nc1cc(Nc2nc(-c3cccc(C(F)(F)F)n3)nc3[nH]ccc23)ccn1 [Example 4, 2-(pyrrolidin-1-yl)-N-(4-((2-(6-(trifluoromethyl)pyridin-2-yl)-7H-pyrrolo[2,3-d]pyrimidin-4-yl)amino)pyridin-2-yl)acetamide]",0.42
3,"CN1CCN(CC(=O)Nc2cc(Nc3nc(-c4cccc(C(F)(F)F)n4)nc4[nH]ccc34)ccn2)CC1 [Example 5, 2-(4-methylpiperazin-1-yl)-N-(4-((2-(6-(trifluoromethyl)pyridin-2-yl)-7H-pyrrolo[2,3-d]pyrimidin-4-yl)amino)pyridin-2-yl)acetamide]",0.53
4,"CN1CCN(Cc2c[nH]c3nc(-c4cccc(C(F)F)n4)nc(Nc4ccncc4F)c23)CC1 [Example 7, 2-(6-(difluoromethyl)pyridin-2-yl)-N-(3-fluoropyridin-4-yl)-5-((4-methylpiperazin-1-yl)methyl)-7H-pyrrolo[2,3-d]pyrimidin-4-amine]",3.7
5,"Fc1cnccc1Nc1nc(-c2ccccn2)nc2[nH]ccc12 [Example 8, N-(3-fluoropyridin-4-yl)-2-(pyridin-2-yl)-7H-pyrrolo[2,3-d]pyrimidin-4-amine]",0.26
6,"c1ccc(-c2nc(-n3ccc4cnccc43)c3cc[nH]c3n2)nc1 [Example 9, 2-(pyridin-2-yl)-4-(1H-pyrrolo[3,2-c]pyridin-1-yl)-7H-pyrrolo[2,3-d]pyrimidine]",1.2
7,"FC(F)c1cccc(-c2nc(-n3ccc4cnccc43)c3cc[nH]c3n2)n1 [Example 12, 2-(6-(difluoromethyl)pyridin-2-yl)-4-(1H-pyrrolo[3,2-c]pyridin-1-yl)-7H-pyrrolo[2,3-d]pyrimidine]",0.64
8,"Cc1nc(-c2nc(Nc3cc(Cl)ncc3F)c3cc[nH]c3n2)ccc1F [Example 13, N-(2-chloro-5-fluoropyridin-4-yl)-2-(5-fluoro-6-methylpyridin-2-yl)-7H-pyrrolo[2,3-d]pyrimidin-4-amine]",4
9,"CC(=O)Nc1cc(Nc2nc(-c3cccc(C(F)F)n3)nc3[nH]ccc23)c(F)cn1 [Example 16, N-(4-((2-(6-(difluoromethyl)pyridin-2-yl)-7H-pyrrolo[2,3-d]pyrimidin-4-yl)amino)-5-fluoropyridin-2-yl)acetamide]",0.71
10,"COC(=O)Nc1cc(Nc2nc(-c3cccc(C(F)F)n3)nc3[nH]ccc23)ccn1 [Example 17, methyl (4-((2-(6-(difluoromethyl)pyridin-2-yl)-7H-pyrrolo[2,3-d]pyrimidin-4-yl)amino)pyridin-2-yl)carbamate]",0.76
11,"CC(=O)Nc1cc(Nc2nc(-c3ccccn3)nc3[nH]ccc23)ccn1 [Example 21, N-(4-((2-(pyridin-2-yl)-7H-pyrrolo[2,3-d]pyrimidin-4-yl)amino)pyridin-2-yl)acetamide]",0.9
12,"CC(=O)Nc1cc(Nc2nc(-c3cccc(C)n3)nc3[nH]ccc23)ccn1 [Example 22, N-(4-((2-(6-methylpyridin-2-yl)-7H-pyrrolo[2,3-d]pyrimidin-4-yl)amino)pyridin-2-yl)acetamide]",1
13,"CC(=O)Nc1cc(Nc2nc(-c3ccc(C(F)(F)F)cn3)nc3[nH]ccc23)ccn1 [Example 23, N-(4-((2-(5-(trifluoromethyl)pyridin-2-yl)-7H-pyrrolo[2,3-d]pyrimidin-4-yl)amino)pyridin-2-yl)acetamide]",4.7
14,"CC(=O)Nc1cc(Nc2nc(-c3cccc(C(F)F)n3)nc3[nH]cc(C)c23)ccn1 [Example 25, N-(4-((2-(6-(difluoromethyl)pyridin-2-yl)-5-methyl-7H-pyrrolo[2,3-d]pyrimidin-4-yl)amino)pyridin-2-yl)acetamide]",1.5
15,"CC(C)CC(=O)Nc1cc(Nc2nc(-c3cccc(C(F)(F)F)n3)nc3[nH]ccc23)ccn1 [Example 27, 3-methyl-N-(4-((2-(6-(trifluoromethyl)pyridin-2-yl)-7H-pyrrolo[2,3-d]pyrimidin-4-yl)amino)pyridin-2-yl)butanamide]",0.85
16,"CC(=O)Nc1cc(Nc2nc(-c3ccc(F)c(C)n3)nc3[nH]ccc23)ccn1 [Example 29, N-(4-((2-(5-fluoro-6-methylpyridin-2-yl)-7H-pyrrolo[2,3-d]pyrimidin-4-yl)amino)pyridin-2-yl)acetamide]",0.77
17,"COC(=O)Nc1cc(Nc2nc(-c3cccc(C(F)(F)F)n3)nc3[nH]ccc23)ccn1 [Example 30, methyl (4-((2-(6-(trifluoromethyl)pyridin-2-yl)-7H-pyrrolo[2,3-d]pyrimidin-4-yl)amino)pyridin-2-yl)carbamate]",2.5
18,"CC(=O)Nc1nccc(Nc2nc(-c3cccc(C(F)F)n3)nc3[nH]ccc23)c1F [Example 31, N-(4-((2-(6-(difluoromethyl)pyridin-2-yl)-7H-pyrrolo[2,3-d]pyrimidin-4-yl)amino)-3-fluoropyridin-2-yl)acetamide]",0.37
19,"O=C(CN1CCOCC1)Nc1cc(Nc2nc(-c3cccc(C(F)(F)F)n3)nc3[nH]ccc23)ccn1 [Example 32, 2-morpholino-N-(4-((2-(6-(trifluoromethyl)pyridin-2-yl)-7H-pyrrol[2,3-d]pyrimidin-4-yl)amino)pyridin-2-yl)acetamide]",0.77
20,"Cc1c[nH]c2nc(-c3cccc(C(F)(F)F)n3)nc(Nc3ccncc3F)c12 [Example 34, N-(3-fluoropyridin-4-yl)-5-methyl-2-(6-(trifluoromethyl)pyridin-2-yl)-7H-pyrrolo[2,3-d]pyrimidin-4-amine]",4.5
21,"CC(C)(O)CNCc1c[nH]c2nc(-c3cccc(C(F)F)n3)nc(Nc3ccncc3F)c12 [Example 35, 1-(((2-(6-(difluoromethyl)pyridin-2-yl)-4-((3-fluoropyridin-4-yl)amino)-7H-pyrrolo[2,3-d]pyrimidin-5-yl)methyl)amino)-2-methylpropan-2-ol]",1.4
22,"CC(=O)Nc1nccc(Nc2nc(-c3cccc(C(F)(F)F)n3)nc3[nH]ccc23)c1F [Example 36, N-[3-fluoro-4-({2-[6-(trifluoromethyl)pyridin-2-yl]-7H-pyrrolo[2,3-d]pyrimidin-4-yl}amino)pyridin-2-yl]acetamide]",1.7
23,"Cc1cnccc1Nc1nc(-c2cccc(C(F)(F)F)n2)nc2[nH]ccc12 [Example 37, 3-methyl-N-{2-[6-(trifluoromethyl)pyridin-2-yl]-7H-pyrrolo[2,3-d]pyrimidin-4-yl}pyridin-4-amine]",0.87
24,"CN(c1ccncc1)c1nc(-c2cccc(C(F)(F)F)n2)nc2[nH]ccc12 [Example 38, N-methyl-N-{2-[6-(trifluoromethyl)pyridin-2-yl]-7H-pyrrolo[2,3-d]pyrimidin-4-yl}pyridin-4-amine]",0.59
25,"FC(F)(F)c1cccc(-c2nc(Nc3ccncc3C(F)(F)F)c3cc[nH]c3n2)n1 [Example 39, 3-(trifluoromethyl)-N-{2-[6-(trifluoromethyl)pyridin-2-yl]-7H-pyrrolo[2,3-d]pyrimidin-4-yl}pyridin-4-amine]",0.64

# The remaining lines, values ahead:
row,IC50 [nM],Compound
1,0.78,"CC(=O)Nc1cc(Nc2nc(-c3cccc(C(F)F)n3)nc3[nH]ccc23)ccn1 [Example 3, N-(4-((2-(6-(difluoromethyl)pyridin-2-yl)-7H-pyrrolo[2,3-d]pyrimidin-4-yl)amino)pyridin-2-yl)acetamide]"
2,0.76,"Cc1c[nH]c2nc(-c3cccc(C(F)F)n3)nc(Nc3ccncc3F)c12 [Example 6, 2-(6-(difluoromethyl)pyridin-2-yl)-N-(3-fluoropyridin-4-yl)-5-methyl-7H-pyrrolo[2,3-d]pyrimidin-4-amine]"
3,0.6,"Cc1nc(-c2nc(Nc3ccncc3F)c3cc[nH]c3n2)ccc1F [Example 11, 2-(5-fluoro-6-methylpyridin-2-yl)-N-(3-fluoropyridin-4-yl)-7H-pyrrolo[2,3-d]pyrimidin-4-amine]"
4,0.91,"Fc1ccc(-c2nc(Nc3ccncc3F)c3cc[nH]c3n2)nc1 [Example 14, 2-(5-fluoropyridin-2-yl)-N-(3-fluoropyridin-4-yl)-7H-pyrrolo[2,3-d]pyrimidin-4-amine]"
5,160,"FC(F)c1cccc(-c2nc(Nc3ccnc(Cl)n3)c3cc[nH]c3n2)n1 [Example 15, N-(2-chloropyrimidin-4-yl)-2-(6-(difluoromethyl)pyridin-2-yl)-7H-pyrrolo[2,3-d]pyrimidin-4-amine]"
6,1.3,"CC(=O)Nc1cc(Nc2nc(-c3ccc(F)c(C)n3)nc3[nH]ccc23)c(F)cn1 [Example 18, N-(5-fluoro-4-((2-(5-fluoro-6-methylpyridin-2-yl)-7H-pyrrolo[2,3-d]pyrimidin-4-yl)amino)pyridin-2-yl)acetamide]"
7,5.8,"O=C1CCCN1c1cc(Nc2nc(-c3cccc(C(F)F)n3)nc3[nH]ccc23)ccn1 [Example 19, 1-(4-((2-(6-(difluoromethyl)pyridin-2-yl)-7H-pyrrolo[2,3-d]pyrimidin-4-yl)amino)pyridin-2-yl)pyrrolidin-2-one]"
8,0.74,"CCC(=O)Nc1cc(Nc2nc(-c3cccc(C(F)(F)F)n3)nc3[nH]ccc23)ccn1 [Example 24, N-(4-((2-(6-(trifluoromethyl)pyridin-2-yl)-7H-pyrrolo[2,3-d]pyrimidin-4-yl)amino)pyridin-2-yl)propionamide]"
9,2.7,"CC(C)(C)CC(=O)Nc1cc(Nc2nc(-c3cccc(C(F)(F)F)n3)nc3[nH]ccc23)ccn1 [Example 26, 3,3-dimethyl-N-(4-((2-(6-(trifluoromethyl)pyridin-2-yl)-7H-pyrrolo[2,3-d]pyrimidin-4-yl)amino)pyridin-2-yl)butanamide]"
10,970,"CS(=O)(=O)Nc1cc(Nc2nc(-c3cccc(C(F)(F)F)n3)nc3[nH]ccc23)ccn1 [Example 28, N-(4-((2-(6-(trifluoromethyl)pyridin-2-yl)-7H-pyrrolo[2,3-d]pyrimidin-4-yl)amino)pyridin-2-yl)methanesulfonamide]"
11,0.25,"Cc1cccc(-c2nc(Nc3ccncc3F)c3c(C)c[nH]c3n2)n1 [Example 33, N-(3-fluoropyridin-4-yl)-5-methyl-2-(6-methylpyridin-2-yl)-7H-pyrrolo[2,3-d]pyrimidin-4-amine]"
